Tested on: Saccharomyces cerevisiae
Test: Antimicrobial activity against Saccharomyces cerevisiae
Type: functional

Q: For COC1=C(OC)C(=O)C([C@@H]2COc3cc(OC)ccc3C2)=CC1=O [COLUTEQUINONE A], which MIC is on record?
A: < 50 µg/mL

Q: For COC1=CC(=O)C([C@@H]2COc3cc(OC)ccc3C2)=C(OC)C1=O [COLUTEQUINONE B], which MIC is on record?
A: < 50 µg/mL

Q: Which MIC does the source give for COc1ccc2c(c1)OC[C@@H](c1cc(O)c(OC)c(O)c1OC)C2 [R-COLUTEOL] here?
A: < 100 µg/mL

Q: Which MIC does the source give for NYSTATIN here?
A: < 5 µg/mL
